Source: US5559158A, “Pharmaceutical composition” (Abbott Laboratories, priority 1994, dated 1996)

Assays:
HIV-1 protease = test: Inhibition of HIV-1 protease; format: biochemical; conditions: in words
[1] = Oral bioavailability study in dogs; parameters: species or system beagle dogs; conditions: dog, in vivo, 5 mg/kg, summary statement, dose not stated
Protocol: Each dog received a single solid dosage form corresponding to a 5 mg/kg dose of the drug.

HIV-2 protease = test: Inhibition of HIV-2 protease; format: biochemical; conditions: in words
[2] = listed as compound of formula II

SMILES | inhibition of HIV-1 protease (HIV-1 protease) | bioavailability [1] [%] | inhibition of HIV-2 protease (HIV-2 protease) | inhibition of HIV-1 protease (HIV-1 protease; [2]) | inhibition of HIV-2 protease (HIV-2 protease; [2])
CC(C)c1nc(CN(C)C(=O)NC(C(=O)N[C@@H](Cc2ccccc2)C[C@H](O)[C@H](Cc2ccccc2)NC(=O)OCc2cncs2)C(C)C)cs1 (stereo partly drawn) [Compound III, (2S,3S,5S)-5-(N-(N-((N-Methyl-N-((2-isopropyl-4-thiazolyl)methyl)-amino)carbonyl)valinyl)amino)-2-(N((5-thiazolyl)methoxycarbonyl)amino)-1,6-diphenyl-3-hydroxyhexane] | inhibitors | < 2 | inhibitors |  | 
CC(C)c1nc(CN(C)C(=O)NC(C(=O)NC(Cc2ccccc2)CC(O)C(Cc2ccccc2)NC(=O)OCc2cncs2)C(C)C)cs1 (stereo not shown) [Compound II] | inhibitors |  | inhibitors | especially effective | especially effective
